Measurements reported in patent US10757939B2, “Insecticidal and nematocidal active ingredient combinations” (priority 2014, dated 2020).
Where two headings read alike, the source gives them in different places.

Experiments:
Meloidogyne incognita [1] = assay: Meloidogyne incognita - test (gall formation, sand, salad seedlings); format: in vivo
Method: (§1) Formula for the Efficacy of the Combination of Two Compounds
(§2) Schneider-Orelli: Formula to Calculate Corrected Efficacy % in Pesticide Trials
Meloidogyne incognita—Test […]
Vessels are filled with sand, a solution of the active ingredient, a suspension containing eggs and larvae of the southern root-knot nematode (Meloidogyne incognita) and salad seeds. The salad seeds germinate and the seedlings grow. Galls develop in the roots.
After the specified period the nematicidal activity is determined on the basis of the percentage of gall formation.

Spodoptera frugiperda = Spodoptera frugiperda - drench test (corn plants); format: in vivo
Method: as §1, §2
Spodoptera frugiperda—Drench Test
(§3) • Solvent: 7 parts by weight of dimethylformamide • Emulsifier: 2 parts by weight of alkylaryl poly glycol ether
(§4) In the calculation of the concentration the soil volume has to be included. […] Further test concentrations are prepared by dilution with water.
After the specified period of time mortality in % is determined and corrected according to Schneider-Orelli's formula (see sheet 1). 100% means all the caterpillars have been killed and 0% means none of the caterpillars have been killed. The mortality values determined thus are recalculated using the Colby-formula (see sheet 1).

Myzus persicae = Myzus persicae - drench test (cabbage plants); format: in vivo; settings: soil
Method: as §1, §2
Myzus persicae—Drench Test
as §3, §4
After the specified period of time mortality in % is determined. 100% means all the aphids have been killed and 0% means none of the aphids have been killed. The mortality values determined thus are recalculated using the Colby-formula (see sheet 1).

Meloidogyne incognita [2] = assay: Meloidogyne incognita - drench test (soil, salad seedlings); format: in vivo
Method: as §1, §2
Meloidogyne incognita—Drench Test
• Solvent: 7 parts by weight of dimethylformamide • Emulsifier: 2.5 parts by weight of alkylarylpolyglycolether
as §4
The compound solution is poured into pots filled with soil (loamy sand). A suspension containing eggs and larvae of the southern root-knot nematode (Meloidogyne incognita) is added, salad seeds are spread on the soil surface and covered with quartz sand. The salad seeds germinate and the seedlings grow. Galls develop on the roots.
After the specified period of time the nematicidal activity is determined on the basis of the percentage of gall formation. […] The activity determined thus is recalculated using the Colby-formula (see sheet 1).

Tetranychus urticae = Tetranychus urticae - drench test; OP-resistant (bean plants); format: in vivo; settings: for mortality at 25 ppm: Tetranychus urticae, soil, 360 h, read-out: Efficacy in % after 15 d (mortality)
Method: as §1, §2
Tetranychus urticae—Drench Test; OP-Resistant
as §3, §4
After the specified period of time mortality in % is determined. 100% means all the spider mites have been killed and 0% means none of the spider mites have been killed. The mortality values determined thus are recalculated using the Colby-formula (see sheet 1).

[3] = 168 h, 7 d, read-out: Efficacy in % after 7d
[4] = 240 h, 10 d, read-out: Efficacy in % after 10d

Abamectin
Efficacy in % after 14d (Meloidogyne incognita [1]; 0.02 ppm): 0% | Efficacy in % after 14d (Meloidogyne incognita [1]; 0.08 ppm): 0%

CNC(=O)c1cc(C#N)cc(C)c1NC(=O)c1cc(Br)nn1-c1ncccc1Cl [Cyantraniliprole]
Efficacy in % after 14d (Spodoptera frugiperda; 0.08 ppm): 16.5% | pest or weed control at 0.1 ppm (Myzus persicae; [3]): 20% | pest or weed control at 0.1 ppm (Myzus persicae; [4]): 10%

CN/C(=N\[N+](=O)[O-])NCc1cnc(Cl)s1 [Clothianidin, reference compound]
Efficacy in % after 6d (Spodoptera frugiperda; 2 ppm): 0% | Efficacy in % after 4d (Spodoptera frugiperda; 10 ppm): 0% | Efficacy in % after 6d (Spodoptera frugiperda; 10 ppm): 37%

CC(=O)Nc1ccn(-c2c(F)cccc2F)n1 [intermediate (Ia-3), N-[1-(2,6-Difluorophenyl)-1H-pyrazol-3-yl]acetamide]
logP (logP by HPLC-MS): 1.33

CC(C)NC(=O)N1CC(=O)N(c2cc(Cl)cc(Cl)c2)C1=O [Iprodione]
Efficacy in % after 14d (Meloidogyne incognita [1]; 50 ppm): 0% | Efficacy in % after 14d (Meloidogyne incognita [1]; 100 ppm): 0%

Nc1ccn(-c2ncc(F)cc2F)n1 [intermediate (Ib-1), 1-(3,5-Difluoropyridin-2-yl)-1H-pyrazole-3-amine]
logP (logP by HPLC-MS): 0.81

C/C=C(\C)C(=O)O[C@H]1C[C@@H](OC(C)=O)[C@@]2(C(=O)OC)CO[C@H]3[C@@H](O)[C@@](C)([C@]45O[C@@]4(C)[C@H]4C[C@@H]5O[C@@H]5OC=C[C@@]54O)[C@H]4[C@]1(CO[C@]4(O)C(=O)OC)[C@@H]32 [Azadirachtin]
Efficacy in % after 14d (Meloidogyne incognita [1]; 16 ppm): 0%

O=C(NCCc1ncc(C(F)(F)F)cc1Cl)c1ccccc1C(F)(F)F [Fluopyram, reference compound]
Efficacy in % after 21d (Meloidogyne incognita [2]; 0.15 ppm): 0%

CS/C(C)=N\OC(=O)N(C)SN(C)C(=O)O/N=C(\C)SC [Thiodicarb]
Efficacy in % after 14d (Meloidogyne incognita [1]; 50 ppm): 0%

N#Cc1nn(-c2c(Cl)cc(C(F)(F)F)cc2Cl)c(N)c1[S+]([O-])C(F)(F)F (stereo not drawn) [Fipronil]
pest or weed control at 5 ppm (Myzus persicae; [3]): 15% | pest or weed control at 10 ppm (Myzus persicae; [3]): 40% | pest or weed control at 5 ppm (Myzus persicae; [4]): 50% | pest or weed control at 10 ppm (Myzus persicae; [4]): 55%

O=C(N=c1ccccn1Cc1ccc(Cl)nc1)C(F)(F)F [N-[1-[(6-chloro-3-pyridinyl)methyl]-2(1H)-pyridinylidene]-2,2,2-trifluoro-acetamide]
pest or weed control at 0.1 ppm (Myzus persicae; [3]): 30% | pest or weed control at 0.1 ppm (Myzus persicae; [4]): 20%

O=C(Nc1ccn(-c2ncc(F)cc2F)n1)c1ccccc1C(F)(F)F [Compound (Ib), N-[1-(3,5-difluoropyridin-2-yl)-1H-pyrazol-3-yl]-2-(trifluoromethyl)benzamide]
Efficacy in % after 21d (Meloidogyne incognita [2]; 0.75 ppm): 55% | Efficacy in % after 14d (Spodoptera frugiperda; 40 ppm): 0% | Efficacy in % after 4d (Spodoptera frugiperda; 200 ppm): 0% | Efficacy in % after 6d (Spodoptera frugiperda; 200 ppm): 0% | mortality at 25 ppm (Tetranychus urticae; drench, bean plants, 25 ppm, after 15 d, single compound): 0% | pest or weed control at 2 ppm (Myzus persicae; [3]): 0% | pest or weed control at 20 ppm (Myzus persicae; [3]): 0% | pest or weed control at 2 ppm (Myzus persicae; [4]): 0%

Cc1cc(C(F)(C(F)(F)F)C(F)(F)F)ccc1NC(=O)c1cccc(I)c1C(=O)NC(C)(C)CS(C)(=O)=O [Flubendiamide, reference compound]
Efficacy in % after 14d (Spodoptera frugiperda; 4 ppm): 33% | Efficacy in % after 14d (Spodoptera frugiperda; 8 ppm): 66%

CCOP(=O)(SC(C)CC)SC(C)CC (stereo not drawn) [Cadusafos]
Efficacy in % after 14d (Meloidogyne incognita [1]; 50 ppm): 0% | Efficacy in % after 14d (Meloidogyne incognita [1]; 100 ppm): 0%

CNC(=O)c1cc(C#N)cc(C)c1NC(=O)c1cc(Cn2nnc(C(F)(F)F)n2)nn1-c1ncccc1Cl [1-(3-chloropyridin-2-yl)-N-[4-cyano-2-methyl-6-(methylcarbamoyl)phenyl]-3-{[5-(trifluoromethyl)-2H-tetrazol-2-yl]methyl}-1H-pyrazole-5-carboxamide]
pest or weed control at 0.25 ppm (Myzus persicae; [3]): 0% | pest or weed control at 0.25 ppm (Myzus persicae; [4]): 0%

CNC(=O)Oc1cccc2c1OC(C)(C)C2 [Carbofuran]
Efficacy in % after 14d (Meloidogyne incognita [1]; 50 ppm): 0% | Efficacy in % after 14d (Meloidogyne incognita [1]; 100 ppm): 0%

Nc1ccn(-c2c(F)cccc2F)n1 [intermediate (Ia-4), 1-(2,6-Difluorophenyl)-1H-pyrazole-3-amine]
logP (logP by HPLC-MS): 1.13

Nc1cnn(-c2c(F)cccc2F)n1 [intermediate (Ic-8), 2-(2,6-Difluorophenyl)-2H-1,2,3-triazole-4-amine]
logP (logP by HPLC-MS): 1.16

Emamectin-benzoate
Efficacy in % after 15 d (mortality) (Tetranychus urticae; drench, bean plants, 2 ppm, after 15 d, single compound): 10%

O=C(Nc1cnn(-c2c(F)cccc2F)n1)c1ccccc1C(F)(F)F [Compound (Ic), N-[2-(2,6-Difluorophenyl)-2H-1,2,3-triazol-4-yl]-2-(trifluoromethyl)benzamide]
logP (logP by HPLC-MS): 2.80 | Efficacy in % after 14d (Spodoptera frugiperda; 0.2 ppm): 0% | Efficacy in % after 14d (Spodoptera frugiperda; 0.8 ppm): 0% | Efficacy in % after 4d (Spodoptera frugiperda; 200 ppm): 0% | Efficacy in % after 6d (Spodoptera frugiperda; 200 ppm): 0% | mortality at 25 ppm (Tetranychus urticae): 0% | pest or weed control at 2 ppm (Myzus persicae; [3]): 0% | pest or weed control at 20 ppm (Myzus persicae; [3]): 0% | pest or weed control at 2 ppm (Myzus persicae; [4]): 0% | Efficacy in % after 14d (Meloidogyne incognita [1]; 0.25 ppm): 0% | Efficacy in % after 14d (Meloidogyne incognita [1]; 1 ppm): 0% | Efficacy in % after 14d (Meloidogyne incognita [1]; 5 ppm): 0% | Efficacy in % after 14d (Meloidogyne incognita [1]; 10 ppm): 70%

CNC(=O)c1cc(Cl)cc(C)c1NC(=O)c1cc(Br)nn1-c1ncccc1Cl [Chlorantraniliprole]
Efficacy in % after 14d (Spodoptera frugiperda; 0.04 ppm): 66.5% | pest or weed control at 0.8 ppm (Myzus persicae; 168 h, 0.8 ppm, 7 d, read-out: Efficacy in % after 7d): 10% | pest or weed control at 1.6 ppm (Myzus persicae; 168 h, 1.6 ppm, 7 d, read-out: Efficacy in % after 7d): 20% | pest or weed control at 0.4 ppm (Myzus persicae; 240 h, 0.4 ppm, 10 d, read-out: Efficacy in % after 10d): 0%

O=C(Nc1ccn(-c2c(F)cccc2F)n1)c1ccccc1C(F)(F)F [Compound (Ia), N-[1-(2,6-difluorophenyl)-1H-pyrazol-3-yl]-2-(trifluoromethyl)benzamide]
Efficacy in % after 21d (Meloidogyne incognita [2]; 0.75 ppm): 0% | logP (logP by HPLC-MS): 2.68 | Efficacy in % after 14d (Spodoptera frugiperda; 0.2 ppm): 0% | Efficacy in % after 14d (Spodoptera frugiperda; 40 ppm): 0% | Efficacy in % after 4d (Spodoptera frugiperda; 200 ppm): 0% | Efficacy in % after 6d (Spodoptera frugiperda; 200 ppm): 0% | mortality at 25 ppm (Tetranychus urticae): 10% | pest or weed control at 2 ppm (Myzus persicae; [3]): 0% | pest or weed control at 20 ppm (Myzus persicae; [3]): 0% | pest or weed control at 2 ppm (Myzus persicae; [4]): 0% | pest or weed control at 20 ppm (Myzus persicae; [4]): 0% | Efficacy in % after 14d (Meloidogyne incognita [1]; 1 ppm): 0% | Efficacy in % after 14d (Meloidogyne incognita [1]; 5 ppm): 0% | Efficacy in % after 14d (Meloidogyne incognita [1]; 10 ppm): 0%

O=[N+]([O-])NC1=NCCN1Cc1ccc(Cl)nc1 [Imidacloprid, reference compound]
Efficacy in % after 6d (Spodoptera frugiperda; 10 ppm): 0% | Efficacy in % after 4d (Spodoptera frugiperda; 50 ppm): 22% | Efficacy in % after 6d (Spodoptera frugiperda; 50 ppm): 12%

CC(=O)NC1=NN(c2c(F)cccc2F)CC1 [intermediate (Ia-2), N-[1-(2,6-Difluorophenyl)-4,5-dihydro-1H-pyrazol-3-yl]acetamide]
logP (logP by HPLC-MS): 1.46
